In publication PMC11233931, “Remodeling tumor‐associated macrophage for anti‐cancer effects by rational design of irreversible inhibition of mitogen‐activated protein kinase‐activated protein kinase 2” (MedComm, 2024):

Columns and labels:
Experiment in all cases: Eurofins kinase selectivity profile against 380 other human recombinant kinases (Table S2)
Assay type in all cases: biochemical
[1] = molecular target: T1, 380 human recombinant protein kinases (Homo sapiens, UniProt O43318); settings: TAK1(h), read-out: Inhibition rate (%)
T1 construct: purchased Eurofins (Celle Lévescault)
T1 sequence (O43318 1-606): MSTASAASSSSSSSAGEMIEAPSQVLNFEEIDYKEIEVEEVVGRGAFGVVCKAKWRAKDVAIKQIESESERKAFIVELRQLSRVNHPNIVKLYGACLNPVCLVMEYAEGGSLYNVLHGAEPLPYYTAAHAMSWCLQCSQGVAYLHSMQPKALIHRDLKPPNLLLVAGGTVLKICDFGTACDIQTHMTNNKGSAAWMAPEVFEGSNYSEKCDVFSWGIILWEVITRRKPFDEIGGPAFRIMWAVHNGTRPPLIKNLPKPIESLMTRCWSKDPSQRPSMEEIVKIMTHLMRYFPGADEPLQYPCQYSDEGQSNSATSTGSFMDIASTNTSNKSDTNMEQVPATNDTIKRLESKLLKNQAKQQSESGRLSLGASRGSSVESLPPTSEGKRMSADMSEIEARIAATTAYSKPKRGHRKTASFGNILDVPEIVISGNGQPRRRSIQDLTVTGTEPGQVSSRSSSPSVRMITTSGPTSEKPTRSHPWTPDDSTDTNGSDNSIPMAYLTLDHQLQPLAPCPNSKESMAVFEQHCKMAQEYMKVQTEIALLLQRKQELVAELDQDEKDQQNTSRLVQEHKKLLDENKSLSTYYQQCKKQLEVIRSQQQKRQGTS
Outline: (§1)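 Selectivity panel of 380 human recombinant protein kinases, screened by Eurofins at a range of concentrations.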

[2] = molecular target: T2, 380 human recombinant protein kinases (Homo sapiens, UniProt P25098); settings: GRK2(h), read-out: Inhibition rate
T2 construct: purchased Eurofins (Celle Lévescault)
T2 sequence (P25098 1-689): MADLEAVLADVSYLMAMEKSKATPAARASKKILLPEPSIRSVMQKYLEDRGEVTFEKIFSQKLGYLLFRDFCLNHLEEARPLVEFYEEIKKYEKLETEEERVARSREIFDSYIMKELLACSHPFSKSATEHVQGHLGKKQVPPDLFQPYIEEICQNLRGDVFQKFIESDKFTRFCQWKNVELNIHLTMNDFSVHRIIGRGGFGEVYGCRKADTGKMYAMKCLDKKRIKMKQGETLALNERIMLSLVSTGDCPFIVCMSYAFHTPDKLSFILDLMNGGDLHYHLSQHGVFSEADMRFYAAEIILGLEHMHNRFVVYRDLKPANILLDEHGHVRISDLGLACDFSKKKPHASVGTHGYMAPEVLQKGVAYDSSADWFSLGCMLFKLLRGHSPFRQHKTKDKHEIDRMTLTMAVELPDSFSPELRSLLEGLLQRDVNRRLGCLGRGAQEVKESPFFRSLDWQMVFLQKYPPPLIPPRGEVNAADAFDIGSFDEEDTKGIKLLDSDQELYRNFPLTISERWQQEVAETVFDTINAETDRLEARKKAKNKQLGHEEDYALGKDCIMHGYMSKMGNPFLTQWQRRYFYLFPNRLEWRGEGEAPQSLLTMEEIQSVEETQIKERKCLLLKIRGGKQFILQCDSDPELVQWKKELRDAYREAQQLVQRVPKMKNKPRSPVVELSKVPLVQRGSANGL
Outline: as §1

[3] = molecular target: T3, 380 human recombinant protein kinases (Homo sapiens, UniProt Q12851); settings: GCK(h), read-out: Inhibition rate
T3 construct: purchased Eurofins (Celle Lévescault)
T3 sequence (Q12851 1-820): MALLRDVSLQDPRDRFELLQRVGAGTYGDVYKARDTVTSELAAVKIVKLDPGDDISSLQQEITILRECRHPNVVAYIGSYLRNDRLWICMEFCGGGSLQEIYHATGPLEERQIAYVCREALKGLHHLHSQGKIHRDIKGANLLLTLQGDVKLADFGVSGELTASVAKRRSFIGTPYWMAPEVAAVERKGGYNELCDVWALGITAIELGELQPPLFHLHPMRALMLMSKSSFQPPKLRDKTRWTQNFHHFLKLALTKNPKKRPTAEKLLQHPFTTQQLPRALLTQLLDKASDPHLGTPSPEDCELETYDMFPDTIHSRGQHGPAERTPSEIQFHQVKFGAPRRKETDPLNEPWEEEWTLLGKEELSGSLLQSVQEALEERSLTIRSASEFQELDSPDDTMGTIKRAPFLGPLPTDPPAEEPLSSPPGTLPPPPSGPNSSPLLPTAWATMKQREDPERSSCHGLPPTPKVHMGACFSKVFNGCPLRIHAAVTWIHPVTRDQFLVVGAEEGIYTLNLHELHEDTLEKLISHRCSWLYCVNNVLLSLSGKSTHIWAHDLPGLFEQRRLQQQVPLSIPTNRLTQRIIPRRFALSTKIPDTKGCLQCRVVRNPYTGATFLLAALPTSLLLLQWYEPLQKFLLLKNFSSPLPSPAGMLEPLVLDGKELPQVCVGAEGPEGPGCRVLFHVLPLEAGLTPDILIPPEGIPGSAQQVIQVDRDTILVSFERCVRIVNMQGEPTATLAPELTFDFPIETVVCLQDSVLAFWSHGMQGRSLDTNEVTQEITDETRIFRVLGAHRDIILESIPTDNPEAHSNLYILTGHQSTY
Outline: as §1

[4] = molecular target: T4, 380 human recombinant protein kinases (Homo sapiens, UniProt Q9NYL2); settings: ZAK(h), read-out: Inhibition rate (%)
T4 construct: purchased Eurofins (Celle Lévescault)
T4 sequence (Q9NYL2 whole entry): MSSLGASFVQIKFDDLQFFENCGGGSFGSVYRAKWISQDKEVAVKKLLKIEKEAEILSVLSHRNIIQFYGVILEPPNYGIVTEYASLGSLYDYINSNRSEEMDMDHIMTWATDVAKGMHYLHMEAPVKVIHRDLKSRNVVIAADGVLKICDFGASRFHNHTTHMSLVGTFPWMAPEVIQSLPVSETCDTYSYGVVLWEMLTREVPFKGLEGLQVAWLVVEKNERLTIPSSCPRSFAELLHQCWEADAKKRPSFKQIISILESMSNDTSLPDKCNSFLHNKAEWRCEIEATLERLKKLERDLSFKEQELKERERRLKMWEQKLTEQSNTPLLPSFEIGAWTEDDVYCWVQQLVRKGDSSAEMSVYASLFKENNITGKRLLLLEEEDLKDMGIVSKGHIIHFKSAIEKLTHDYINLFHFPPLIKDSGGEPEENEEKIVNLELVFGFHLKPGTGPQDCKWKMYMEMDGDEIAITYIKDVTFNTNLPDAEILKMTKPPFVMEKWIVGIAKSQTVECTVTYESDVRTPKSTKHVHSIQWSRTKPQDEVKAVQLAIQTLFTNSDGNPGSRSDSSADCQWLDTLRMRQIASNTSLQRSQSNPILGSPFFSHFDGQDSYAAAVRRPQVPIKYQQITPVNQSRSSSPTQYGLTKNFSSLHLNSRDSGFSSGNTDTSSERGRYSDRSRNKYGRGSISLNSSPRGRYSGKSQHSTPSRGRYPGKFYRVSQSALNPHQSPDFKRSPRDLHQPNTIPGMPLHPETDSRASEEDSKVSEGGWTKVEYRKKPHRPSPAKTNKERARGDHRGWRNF
Outline: as §1

C=CC(=O)Nc1cc(-c2cc(-c3cc4c([nH]3)CCNC4=O)ccn2)ccc1OC(F)(F)F [compound 11]
inhibition at 0.01 µM ([1]; 10 nM): 9%
inhibition at 0.1 µM ([1]; 100 nM): 2%
inhibition at 1 µM ([1]; 1000 nM): 47%
inhibition at 0.01 µM ([2]; 10 nM): -6%
inhibition at 0.1 µM ([2]; 100 nM): -9%
inhibition at 1 µM ([2]; 1000 nM): -2%
inhibition at 0.01 µM ([3]; 10 nM): -2%
inhibition at 0.1 µM ([3]; 100 nM): -9%
inhibition at 1 µM ([3]; 1000 nM): 17%
inhibition at 0.01 µM ([4]; 10 nM): -3%
inhibition at 0.1 µM ([4]; 100 nM): -1%
inhibition at 1 µM ([4]; 1000 nM): 1%
